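Each compound was tested at five concentrations against cells in 96-well plates for 48 hours. GI50 marks 50% less growth.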 Activity calls are given as the source filed them. Rule as the data show it: active = GI50 up to about 1.1 µM and inactive = higher.

Test systems include SK-MEL-5; EKVX; PC-3; SF-268; NCI-H522; TK-10; SN12C; A549; HCT-15; SNB-19; OVCAR-8; SF-295; UACC-62; HOP-92; T47D; 786-0; HL-60; COLO 205; RPMI-8226; MCF7.
Holding throughout (test): NCI anticancer screen, dose series, 48 h

Consider `O=C(C[N+]1(c2ccccc2)CCOCC1)c1ccccc1`, for which the GI50 in the experiment with SK-MEL-5 is > 100 µM (inactive); in the experiment with EKVX it was 96.6 µM (inactive); with PC-3, > 100 µM (inactive); with SF-268, > 100 µM (inactive); in the experiment on NCI-H522, 45.7 µM (inactive); with TK-10, > 100 µM (inactive). The GI50 with SN12C is > 100 µM (inactive); with A549, > 100 µM (inactive); in the experiment on HCT-15, more than 100 µM; in the experiment on SNB-19 it was > 100 µM (inactive); in the experiment on OVCAR-8 it was > 100 µM (inactive); in the experiment with SF-295, > 100 µM (inactive). For the same compound, the GI50 with UACC-62 is > 100 µM (inactive); with HOP-92, > 100 µM (inactive); in the experiment on T47D it was > 100 µM (inactive); in the experiment on 786-0 it was 60.5 µM (inactive).
Take `COc1cc(OC)cc(C(=O)Cc2c(C(=O)c3ccccc3)c3ccccc3n2C(=O)c2ccccc2)c1`: the GI50 in the experiment with SK-MEL-5 was 13.1 µM (inactive); in the experiment on HL-60 it was 34.5 µM (inactive); with EKVX it was 55.2 µM (inactive); with SF-268, 65.3 µM (inactive); with NCI-H522, 6 µM (inactive); in the experiment on TK-10, 38.5 µM (inactive). For the same compound, the GI50 was 43.8 µM (inactive) in the experiment with SN12C; 25.3 µM (inactive) in the experiment with A549; 31.3 µM in the experiment with HCT-15; 11.3 µM (inactive) in the experiment on SNB-19; 28.6 µM (inactive) with COLO 205; 16.9 µM (inactive) with OVCAR-8. For the same compound, the GI50 in the experiment on SF-295 is 19.5 µM (inactive); with RPMI-8226 it was 9.29 µM (inactive); with UACC-62, 35.4 µM (inactive); with HOP-92, 3.78 µM (inactive); in the experiment with 786-0 it was 38.9 µM (inactive).
For `COc1ccc(CCCN2c3ccccc3Sc3ccccc32)cc1`, the GI50 in the experiment with SK-MEL-5 was > 100 µM (inactive); in the experiment on HL-60, 41.3 µM (inactive); in the experiment on EKVX it was > 100 µM (inactive); in the experiment with SF-268, > 100 µM (inactive); with NCI-H522, 33.1 µM (inactive); with TK-10, > 100 µM (inactive). The GI50 in the experiment with SN12C was > 100 µM (inactive); in the experiment on A549, > 100 µM (inactive); with HCT-15 it was 27.9 µM; in the experiment with SNB-19, > 100 µM (inactive); in the experiment with COLO 205, 43.4 µM (inactive); with OVCAR-8, > 100 µM (inactive). Further, the GI50 in the experiment with SF-295 was > 100 µM (inactive); in the experiment with RPMI-8226, 32.3 µM (inactive); in the experiment with UACC-62, > 100 µM (inactive); in the experiment with HOP-92 it was > 100 µM (inactive); with 786-0 it was 35.1 µM (inactive).
Turning to `COC(=O)CC(=O)NCC1=CCC(=O)CC1`, the GI50 with SK-MEL-5, in the experiment with HL-60, with EKVX, in the experiment on SF-268, in the experiment on NCI-H522 and in the experiment with TK-10 was > 100 µM (inactive) in each case. For the same compound, the GI50 is > 100 µM (inactive) in the experiment on SN12C; > 100 µM (inactive) with A549; more than 100 µM with HCT-15; > 100 µM (inactive) in the experiment on SNB-19; > 100 µM (inactive) in the experiment on COLO 205; > 100 µM (inactive) in the experiment with OVCAR-8. For the same compound, the GI50 in the experiment on SF-295, in the experiment with RPMI-8226, in the experiment with UACC-62, in the experiment with HOP-92 and in the experiment on 786-0 was > 100 µM (inactive) each time.
Take `CC(C)(C)[Si](C)(C)OCCc1ccccc1C1CC2(S(=O)(=O)c3ccccc3)ON1CC2S(=O)(=O)c1ccccc1` (stereo not drawn): the GI50 in the experiment with SK-MEL-5 is > 100 µM (inactive); in the experiment with EKVX it was > 100 µM (inactive); with SF-268, > 100 µM (inactive); in the experiment with MCF7, 60.5 µM (inactive); in the experiment with TK-10, > 100 µM (inactive); with SN12C, > 100 µM (inactive). The GI50 in the experiment with A549, with SNB-19, in the experiment with COLO 205, in the experiment with OVCAR-8, in the experiment with SF-295 and in the experiment on UACC-62 was > 100 µM (inactive) each time. In addition, the GI50 is < 0.01 µM (active) in the experiment with T47D and > 100 µM (inactive) in the experiment on 786-0.
In the case of `Clc1ccc2c(c1)[nH]c1c2nc2sccn21`, the GI50 in the experiment on SK-MEL-5, with HL-60, in the experiment on EKVX, in the experiment on SF-268, in the experiment with NCI-H522 and with TK-10 was > 100 µM (inactive) each time. For the same compound, the GI50 is > 100 µM (inactive) in the experiment on SN12C; > 100 µM (inactive) in the experiment on A549; more than 100 µM in the experiment with HCT-15; > 100 µM (inactive) in the experiment on SNB-19; > 100 µM (inactive) with COLO 205; > 100 µM (inactive) with OVCAR-8. In addition, the GI50 with SF-295, in the experiment on RPMI-8226, in the experiment on UACC-62, with HOP-92 and in the experiment on 786-0 was > 100 µM (inactive) throughout.
As for `O=C(COc1ccc(Cl)cc1)N1N=C(c2ccc(Cl)cc2)CC1(O)c1ccccc1` (stereo not drawn), the GI50 is 14.5 µM (inactive) in the experiment on SK-MEL-5; 6.5 µM (inactive) with HL-60; 30 µM (inactive) in the experiment on EKVX; > 43.9 µM (inactive) in the experiment on SF-268; 14.3 µM (inactive) with NCI-H522; 26.7 µM (inactive) in the experiment on TK-10. Also, the GI50 in the experiment with SN12C was 5 µM (inactive); with A549, 14.3 µM (inactive); in the experiment on HCT-15, 13.1 µM; in the experiment on SNB-19 it was 20.3 µM (inactive); in the experiment on COLO 205 it was 21 µM (inactive); in the experiment on OVCAR-8, 15.2 µM (inactive). In addition, the GI50 with SF-295 was 23.8 µM (inactive); in the experiment with RPMI-8226, 7.03 µM (inactive); in the experiment with UACC-62, 15.9 µM (inactive); with HOP-92 it was 21.5 µM (inactive); in the experiment with 786-0 it was 14.5 µM (inactive).
As to `O=C1Nc2ccccc2/C1=N/Nc1ncccc1[N+](=O)[O-]`, the GI50 is 5.08 µM (inactive) in the experiment on EKVX; 12.4 µM (inactive) in the experiment with PC-3; 11.9 µM (inactive) in the experiment with SF-268; 3.19 µM (inactive) with MCF7; 9.71 µM (inactive) in the experiment on NCI-H522; 14.1 µM (inactive) with TK-10. For the same compound, the GI50 in the experiment with SN12C was 17.3 µM (inactive); in the experiment on A549, 18 µM (inactive); in the experiment with HCT-15, 4.72 µM; with SNB-19, 19.9 µM (inactive); with OVCAR-8 it was 17.6 µM (inactive); in the experiment on SF-295 it was 17.2 µM (inactive). The GI50 is 3.15 µM (inactive) in the experiment on RPMI-8226, 10.6 µM (inactive) in the experiment on UACC-62, 62.2 µM (inactive) in the experiment on HOP-92 and 4.84 µM (inactive) in the experiment with 786-0.
For the compound `O=C1C=CC(=O)N1Nc1ccc([N+](=O)[O-])cc1[N+](=O)[O-]`, the GI50 with SK-MEL-5 was > 100 µM (inactive); in the experiment with HL-60, 25.8 µM (inactive); in the experiment on EKVX, > 100 µM (inactive); in the experiment with SF-268, > 100 µM (inactive); in the experiment with NCI-H522 it was > 42.7 µM (inactive); with TK-10, > 100 µM (inactive). Besides, the GI50 in the experiment with SN12C is > 100 µM (inactive); in the experiment on A549, > 100 µM (inactive); in the experiment with HCT-15 it was more than 74.1 µM; in the experiment on SNB-19 it was > 100 µM (inactive); in the experiment with COLO 205 it was > 42.8 µM (inactive); with OVCAR-8 it was > 100 µM (inactive). The GI50 was > 100 µM (inactive) in the experiment on SF-295; > 44.5 µM (inactive) in the experiment on RPMI-8226; > 100 µM (inactive) in the experiment on UACC-62; > 49.1 µM (inactive) with HOP-92; > 70.1 µM (inactive) in the experiment with 786-0.
For `Cn1c2c(c3ccccc31)C1C(=O)N(c3ccccc3)C(=O)C1CC2` (stereo not drawn), the GI50 in the experiment on SK-MEL-5 is > 303 µM (inactive); in the experiment on HL-60, > 303 µM (inactive); with EKVX, > 303 µM (inactive); in the experiment on SF-268, > 303 µM (inactive); in the experiment with NCI-H522 it was 243 µM (inactive); in the experiment with TK-10 it was > 303 µM (inactive). In addition, the GI50 is > 303 µM (inactive) in the experiment on SN12C; > 303 µM (inactive) with A549; more than 303 µM in the experiment on HCT-15; 111 µM (inactive) in the experiment with SNB-19; > 303 µM (inactive) in the experiment with COLO 205; > 303 µM (inactive) with OVCAR-8. In addition, the GI50 with SF-295, in the experiment on RPMI-8226, in the experiment with UACC-62, in the experiment with HOP-92 and with 786-0 was > 303 µM (inactive) in each case.
Consider `O=C(O)c1cc(=O)c2c([nH]c3ccccc32)s1`, for which the GI50 in the experiment on SK-MEL-5, in the experiment on HL-60, with EKVX, in the experiment on SF-268, with NCI-H522 and with TK-10 was > 100 µM (inactive) in each case. Moreover, the GI50 in the experiment with SN12C is > 100 µM (inactive); in the experiment on A549, > 100 µM (inactive); with HCT-15 it was more than 100 µM; with SNB-19, > 100 µM (inactive); in the experiment on COLO 205, > 100 µM (inactive); in the experiment on OVCAR-8 it was > 100 µM (inactive). Moreover, the GI50 in the experiment on SF-295, in the experiment on RPMI-8226, in the experiment with UACC-62, in the experiment with HOP-92 and in the experiment with 786-0 was > 100 µM (inactive) each time.
Turning to `CSCCC(NC(=O)Cc1ccc(C(=O)c2ccccc2)cc1)C(=O)N1CCN(CCCCN2c3ccccc3Sc3cc(N=[N+]=[N-])ccc32)CC1` (stereo not drawn), the GI50 in the experiment with SK-MEL-5 is 30.2 µM (inactive); in the experiment on HL-60, 30.6 µM (inactive); in the experiment with EKVX it was > 100 µM (inactive); in the experiment with PC-3, 65.9 µM (inactive); with SF-268, > 100 µM (inactive); with MCF7, 73.3 µM (inactive). Moreover, the GI50 in the experiment on NCI-H522 was 92 µM (inactive); in the experiment on TK-10 it was > 100 µM (inactive); with SN12C, > 100 µM (inactive); in the experiment on HCT-15, more than 100 µM; in the experiment on COLO 205, > 100 µM (inactive); in the experiment with SF-295 it was 47.6 µM (inactive). Also, the GI50 was 68.1 µM (inactive) with RPMI-8226, > 100 µM (inactive) in the experiment with UACC-62, > 100 µM (inactive) in the experiment on HOP-92 and > 100 µM (inactive) in the experiment on 786-0.

The record behind these values is ChEMBL document CHEMBL1201862, “PubChem BioAssay data set” (2004).
